Test results taken from US10941116B2, “Crystalline forms of mesaconine and preparation methods therefor” (Gooddoctor Pharmaceutical Group Co., Ltd., priority 2018, dated 2021).

Columns and labels:
Format in all cases: physicochemical
[1] = Drug hygroscopicity test, Chinese Pharmacopoeia general rule 9103; details: for Percentage of weight increment(%): single batch
Procedure: The test was performed according to guiding principles for drug hygroscopicity test in Chinese Pharmacopoeia (general rule 9103, volume 4, 2015 edition).
According to the definition of hygroscopicity in Chinese Pharmacopoeia (general rule 9103, volume 4, 2015 edition): when the weight increment by hygroscopicity is less than 2% but not less than 0.2%, it has slight hygroscopicity. The weight increment of crystalline form A of mesaconine was 0.85% under the test conditions, which has slight hygroscopicity and good deliquescence resistance.

[2] = Solubility test, Chinese pharmacopoeia 2015 edition, general notice; details: solvent: water
Description: The crystalline form A of mesaconine was sampled and tested according to the method of solubility test in the Chinese pharmacopoeia (2015 edition, general notice).

[3] = Influencing factors test (high temperature, high humidity, hard light irradiation), Chinese pharmacopoeia general rule 9001, analyzed by XRPD; details: open flat weighing bottle, 10 days
Procedure: In addition, the crystalline form A of mesaconine was sampled and tested for influencing factors according to the Guiding principle for stability test of raw materials of drugs and preparations (general rule 9001, the Chinese pharmacopoeia, 2015 edition).
High temperature test: the sample was placed in an open flat weighing bottle at 60° C. for 10 days. Then the sample was tested according to the key inspection items of stability test, and analyzed by X-ray powder diffraction.
High humidity test: the sample was placed in an open flat weighing bottle at 25° C. and 90% relative humidity for 10 days. Then the sample was tested according to the key inspection items of stability test, and analyzed by X-ray powder diffraction.
Hard light irradiation test: the sample was placed in an open flat weighing bottle for 10 days under the illuminance of 4500 lx. Then the sample was tested according to the key inspection items of stability test, and analyzed by X-ray powder diffraction.

[4] = Stability of crystalline form A of mesaconine by XRPD comparison (storage for 4 weeks; heating to 180° C.)
Procedure: After the samples of crystalline form A of mesaconine were placed at 25° C., 60% RH and 40° C., 75% RH for 4 weeks, it was performed XRPD test. The test result was compared with XRPD spectrum of comparative sample of crystalline form A of the mesaconine (XRPD spectrum of crystalline form A of mesaconine before stability test), and the results were shown in FIG. 4. Another sample of crystalline form A of mesaconine was heated to 180° C., and then was performed XRPD test. The test result was compared with XRPD spectrum of comparative sample of crystalline form A of the mesaconine (XRPD spectrum of crystalline form A of mesaconine before stability test), and the results were shown in FIG. 5.

[5] = Stability of crystalline form B of mesaconine by XRPD comparison after heating to 115° C.; details: heated to 115° C.
Procedure: Appropriate amount of crystalline form B of mesaconine was sampled and heated to 115° C., and then was performed XRPD test. The test result was compared with XRPD spectrum of comparative sample of crystalline form B of mesaconine (XRPD spectrum of crystalline form B of mesaconine before stability test), and the results were shown in FIG. 9.

| Compound | Hygroscopicity class ([1]; Chinese Pharmacopoeia definition) | Percentage of average weight increment(%) ([1]; hygroscopicity test, average of two batches) | Percentage of weight increment(%) ([1]; hygroscopicity test, listed as Sample 1) | Percentage of weight increment(%) ([1]; hygroscopicity test, listed as Sample 2) | Solubility [2] | Position and relative intensity of main XRPD diffraction peaks after high humidity test ([3]; 25° C., 90% relative humidity) | Position and relative intensity of main XRPD diffraction peaks after high temperature test ([3]; 60° C.) | Position and relative intensity of main XRPD diffraction peaks after hard light irradiation test ([3]; illuminance 4500 lx) | Crystalline form stability (XRPD main diffraction peaks) ([4]; 25° C., 60% RH for 4 weeks) | Crystalline form stability (XRPD main diffraction peaks) ([4]; 40° C., 75% RH for 4 weeks) | Crystalline form stability (XRPD main diffraction peaks) ([4]; heated to 180° C.) | Crystalline form stability (XRPD main diffraction peaks) [5] |
| --- | --- | --- | --- | --- | --- | --- | --- | --- | --- | --- | --- | --- |
| COC[C@]12CN(C)[C@@H]3[C@@H]4[C@H](OC)[C@H]1[C@@]3([C@@H](OC)C[C@H]2O)[C@@H]1C[C@@]2(O)[C@H](O)[C@@H]1[C@]4(O)[C@@H](O)[C@@H]2OC [crystalline form A of mesaconine, N-methyl-1α,6α,16β,18-tetramethoxyl-4-methyl-aconite-3α,8β,13β,14α,15α-pentol] | slight hygroscopicity (when the weight increment by hygroscopicity is less than 2% but not less than 0.2%, it has slight hygroscopicity) | 0.85 | 0.85 | 0.84 | easily soluble (1 g of solute can be dissolved in 1~10 ml of solvent) | had not changed significantly | had not changed significantly | had not changed significantly | crystalline form did not change | crystalline form did not change | crystalline form did not change |  |
| N-methyl-1α,6α,16β,18-tetramethoxyl-4-methyl-aconite-3α,8β,13β,14α,15α-pentol [crystalline form B of mesaconine] |  |  |  |  |  |  |  |  |  |  |  | crystalline form did not change |
